Reference: patent publication US7851510B2, “Gossypol derivatives, production method thereof and uses of same” (Centre National de la Recherche Scientifique (C.N.R.S.), priority 2004, dated 2010)
Like-named read-outs stand apart in the source and are kept apart here.

How the values were obtained:
AMPK = assay: Protein kinase activity in the presence of compound; assay type: biochemical; details: 10 μM compound; percentage of the activity measured in the absence of inhibitors
Protocol: (§1) The action of the compound of formula (14) was tested on a selection of 29 different protein kinases. The activity of these enzymes was measured in the presence of 10 μM of compound, according to the general methodology described by Bain et al. (2003) Biochem. J. 371:199-204 and Davies et al. (2000) Biochem. J. 351:95-105.
(§2) Residual enzyme activity of protein kinases in the presence of inhibitor compounds at the concentration given (expressed as a percentage of the activity measured in the absence of inhibitors). The results obtained for gossypol and gossypolone are given by way of comparison.

CDK2/cyclin A = CDK2/cyclin A (Homo sapiens, UniProt P24941); assay: as above; assay type: biochemical; details: read-out: Residual activity CDK2/cyclin A
Protocol: as §1, §2

CSK = CSK (Homo sapiens, UniProt P41240); assay: as above; assay type: biochemical; details: read-out: Residual activity CSK
Chain of CSK (P41240 whole entry, species assumed): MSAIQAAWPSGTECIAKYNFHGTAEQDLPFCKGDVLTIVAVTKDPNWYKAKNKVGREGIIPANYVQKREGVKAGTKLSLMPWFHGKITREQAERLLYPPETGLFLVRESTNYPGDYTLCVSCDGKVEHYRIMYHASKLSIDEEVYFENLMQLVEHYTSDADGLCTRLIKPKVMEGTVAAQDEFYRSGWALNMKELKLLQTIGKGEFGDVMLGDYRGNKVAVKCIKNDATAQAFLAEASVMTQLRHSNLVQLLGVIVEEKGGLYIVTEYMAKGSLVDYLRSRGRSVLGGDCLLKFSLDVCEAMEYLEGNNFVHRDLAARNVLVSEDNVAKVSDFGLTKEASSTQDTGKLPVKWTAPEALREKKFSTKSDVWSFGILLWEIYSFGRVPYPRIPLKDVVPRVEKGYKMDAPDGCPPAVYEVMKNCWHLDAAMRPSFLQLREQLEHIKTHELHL
Protocol: as §1, §2

DYRK1a = DYRK1a (Homo sapiens, UniProt Q13627); assay: as above; assay type: biochemical; details: read-out: Residual activity DYRK1a
Protocol: as §1, §2

GSK3b = GSK3b (Homo sapiens, UniProt P49841); assay: as above; assay type: biochemical; details: read-out: Residual activity GSK3b
Chain of GSK3b (P49841 whole entry, species assumed): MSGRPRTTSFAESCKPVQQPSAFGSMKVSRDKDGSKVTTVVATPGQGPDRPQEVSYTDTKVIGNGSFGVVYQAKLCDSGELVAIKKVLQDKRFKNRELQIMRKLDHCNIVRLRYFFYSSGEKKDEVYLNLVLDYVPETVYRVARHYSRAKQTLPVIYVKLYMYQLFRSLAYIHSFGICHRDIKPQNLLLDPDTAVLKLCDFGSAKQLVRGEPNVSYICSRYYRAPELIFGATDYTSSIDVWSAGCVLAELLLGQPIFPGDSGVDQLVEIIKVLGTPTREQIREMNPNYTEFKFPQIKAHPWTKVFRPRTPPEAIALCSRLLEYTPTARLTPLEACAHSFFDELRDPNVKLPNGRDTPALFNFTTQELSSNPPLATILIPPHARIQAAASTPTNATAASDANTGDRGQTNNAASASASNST
Protocol: as §1, §2

MAPK2/ERK2 = MAPK2/ERK2 (Homo sapiens, UniProt P28482); assay: as above; assay type: biochemical; details: read-out: Residual activity MAPK2/ERK2
Chain of MAPK2/ERK2 (P28482 whole entry): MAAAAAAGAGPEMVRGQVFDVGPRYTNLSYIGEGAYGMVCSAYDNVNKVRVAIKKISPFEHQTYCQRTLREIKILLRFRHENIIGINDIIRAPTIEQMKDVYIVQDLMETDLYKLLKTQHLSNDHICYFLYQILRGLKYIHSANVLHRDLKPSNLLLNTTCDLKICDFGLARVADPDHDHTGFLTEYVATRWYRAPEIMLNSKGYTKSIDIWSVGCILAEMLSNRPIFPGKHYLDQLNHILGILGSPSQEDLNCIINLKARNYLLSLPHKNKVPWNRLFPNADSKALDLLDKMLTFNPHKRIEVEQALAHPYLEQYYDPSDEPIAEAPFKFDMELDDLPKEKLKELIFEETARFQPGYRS
Protocol: as §1, §2

MAPKAP-K2 = MAPKAP-K2 (Homo sapiens, UniProt P49137); assay: as above; assay type: biochemical; details: read-out: Residual activity MAPKAP-K2
Chain of MAPKAP-K2 (P49137 whole entry, species assumed): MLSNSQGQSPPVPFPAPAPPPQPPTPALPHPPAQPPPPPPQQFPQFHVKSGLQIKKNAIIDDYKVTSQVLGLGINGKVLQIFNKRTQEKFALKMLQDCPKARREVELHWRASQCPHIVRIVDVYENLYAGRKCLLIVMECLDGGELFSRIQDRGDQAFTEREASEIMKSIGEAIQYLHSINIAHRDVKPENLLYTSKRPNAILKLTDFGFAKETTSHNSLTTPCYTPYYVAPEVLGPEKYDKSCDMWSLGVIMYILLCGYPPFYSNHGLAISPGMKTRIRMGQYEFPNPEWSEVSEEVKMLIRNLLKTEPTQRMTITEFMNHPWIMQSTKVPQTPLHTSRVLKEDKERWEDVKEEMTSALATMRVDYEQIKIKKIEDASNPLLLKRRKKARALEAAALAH
Protocol: as §1, §2

MKK1 = MKK1 (Homo sapiens, UniProt Q02750); assay: as above; assay type: biochemical; details: read-out: Residual activity MKK1
Chain of MKK1 (Q02750 whole entry, species assumed): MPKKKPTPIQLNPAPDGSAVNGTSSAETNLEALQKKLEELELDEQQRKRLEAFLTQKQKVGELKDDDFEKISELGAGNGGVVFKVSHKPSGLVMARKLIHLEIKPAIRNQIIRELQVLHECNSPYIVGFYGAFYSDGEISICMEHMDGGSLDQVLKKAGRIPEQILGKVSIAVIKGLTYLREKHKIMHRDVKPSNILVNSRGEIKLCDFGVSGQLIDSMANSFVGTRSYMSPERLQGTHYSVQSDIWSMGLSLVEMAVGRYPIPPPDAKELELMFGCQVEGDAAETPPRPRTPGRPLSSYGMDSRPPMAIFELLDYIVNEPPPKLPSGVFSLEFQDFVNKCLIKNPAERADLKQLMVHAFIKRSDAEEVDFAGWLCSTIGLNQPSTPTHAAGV
Protocol: as §1, §2

PHK = PHK (Oryctolagus cuniculus, UniProt P00518); assay: as above; assay type: biochemical; details: read-out: Residual activity PHK
Protocol: as §1, §2

PKA = PKA (Homo sapiens, UniProt P17612); assay: as above; assay type: biochemical; details: read-out: Residual activity PKA
Protocol: as §1, §2

PRAK = target: T1, PRAK (Homo sapiens, UniProt Q8IW41); assay: as above; assay type: biochemical; details: for remaining activity at 10 µM: read-out: Residual activity PRAK
T1 sequence (Q8IW41 1-473): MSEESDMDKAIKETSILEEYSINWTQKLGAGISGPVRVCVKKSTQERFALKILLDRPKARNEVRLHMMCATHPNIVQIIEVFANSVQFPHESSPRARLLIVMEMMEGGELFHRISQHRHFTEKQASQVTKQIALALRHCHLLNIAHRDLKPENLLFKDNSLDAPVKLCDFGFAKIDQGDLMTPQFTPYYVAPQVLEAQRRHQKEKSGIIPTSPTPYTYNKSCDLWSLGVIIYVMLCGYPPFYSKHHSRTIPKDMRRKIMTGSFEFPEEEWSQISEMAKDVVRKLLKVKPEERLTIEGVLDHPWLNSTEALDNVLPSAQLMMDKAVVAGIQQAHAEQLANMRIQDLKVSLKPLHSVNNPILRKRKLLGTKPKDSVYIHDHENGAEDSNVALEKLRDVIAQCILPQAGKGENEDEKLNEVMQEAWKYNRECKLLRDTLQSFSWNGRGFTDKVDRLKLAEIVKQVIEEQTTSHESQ
Protocol: as §1, §2

SAPK2b/p38β2 = SAPK2b/p38β2 (Homo sapiens, UniProt Q15759); assay: as above; assay type: biochemical; details: read-out: Residual activity SAPK2b/p38β2
Chain of SAPK2b/p38β2 (Q15759 whole entry): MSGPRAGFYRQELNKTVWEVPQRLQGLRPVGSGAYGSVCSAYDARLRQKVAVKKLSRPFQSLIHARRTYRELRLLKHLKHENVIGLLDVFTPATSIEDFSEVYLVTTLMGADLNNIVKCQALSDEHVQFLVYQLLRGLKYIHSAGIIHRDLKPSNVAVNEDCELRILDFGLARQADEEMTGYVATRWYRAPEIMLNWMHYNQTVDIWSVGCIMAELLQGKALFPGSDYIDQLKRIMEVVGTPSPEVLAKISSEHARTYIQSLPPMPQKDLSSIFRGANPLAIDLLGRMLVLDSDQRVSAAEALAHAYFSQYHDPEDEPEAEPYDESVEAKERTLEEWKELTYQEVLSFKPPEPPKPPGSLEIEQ
Protocol: as §1, §2

SAPK3/p38g = target: T2, SAPK3/p38g (Homo sapiens, UniProt P53778); assay: as above; assay type: biochemical; details: read-out: Residual activity SAPK3/p38g
T2 sequence (P53778 1-367): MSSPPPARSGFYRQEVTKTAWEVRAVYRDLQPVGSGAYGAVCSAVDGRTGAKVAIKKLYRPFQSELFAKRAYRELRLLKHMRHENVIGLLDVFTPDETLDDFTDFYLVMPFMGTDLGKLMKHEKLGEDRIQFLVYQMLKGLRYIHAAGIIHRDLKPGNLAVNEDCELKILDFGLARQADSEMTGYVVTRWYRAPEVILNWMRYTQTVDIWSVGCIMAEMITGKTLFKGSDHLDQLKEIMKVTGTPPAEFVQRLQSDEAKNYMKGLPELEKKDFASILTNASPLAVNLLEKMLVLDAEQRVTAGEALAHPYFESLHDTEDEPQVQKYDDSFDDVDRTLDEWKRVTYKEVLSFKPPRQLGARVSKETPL
Protocol: as §1, §2

SGK = target: T3, SGK (Homo sapiens, UniProt O00141); assay: as above; assay type: biochemical; details: for remaining activity at 10 µM: read-out: Residual activity SGK
T3 sequence (O00141 1-431): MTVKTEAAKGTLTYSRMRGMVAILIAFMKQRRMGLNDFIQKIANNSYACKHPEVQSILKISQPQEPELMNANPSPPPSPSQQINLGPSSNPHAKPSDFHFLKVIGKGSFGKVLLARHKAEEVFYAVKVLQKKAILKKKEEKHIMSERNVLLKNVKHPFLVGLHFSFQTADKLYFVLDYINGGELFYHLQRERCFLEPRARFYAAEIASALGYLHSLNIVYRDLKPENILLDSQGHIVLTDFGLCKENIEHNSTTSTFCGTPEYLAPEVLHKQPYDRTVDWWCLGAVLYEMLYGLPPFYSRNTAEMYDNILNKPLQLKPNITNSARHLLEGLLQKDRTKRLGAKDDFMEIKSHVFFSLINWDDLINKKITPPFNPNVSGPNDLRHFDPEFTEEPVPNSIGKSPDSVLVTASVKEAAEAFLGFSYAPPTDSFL
Protocol: as §1, §2

KB tumour cell line = assay: Cytotoxicity vis-à-vis the KB tumour cell line; assay type: cell-based; details: Homo sapiens
Protocol: The cytotoxicity of the compound vis-à-vis the KB tumour cell line was measured as is described in Dao et al. (2003) Bioorg. Med. Chem. 11:2001-2006.

[1] = 10 μM compound, percentage of the activity measured in the absence of inhibitors

Compound	Residual activity AMPK (AMPK) [%]	remaining activity at 10 µM (CDK2/cyclin A) [%]	remaining activity at 10 µM (CSK) [%]	remaining activity at 10 µM (DYRK1a) [%]	remaining activity at 10 µM (GSK3b) [%]	remaining activity at 10 µM (MAPK2/ERK2) [%]	remaining activity at 10 µM (MAPKAP-K2) [%]	remaining activity at 10 µM (MKK1) [%]	remaining activity at 10 µM (PHK) [%]	remaining activity at 10 µM (PKA) [%]	remaining activity at 10 µM (PRAK) [%]	remaining activity at 10 µM (SAPK2b/p38β2) [%]	remaining activity at 10 µM (SAPK3/p38g) [%]	remaining activity at 10 µM (SGK) [%]	Reduction of the activity of PRAK (PRAK; 10 μM compound) [%]	Reduction of the activity of SGK (SGK; 10 μM compound) [%]	further results
CC1=C(C2=C(C)C(=O)c3c(c(C=O)c(O)c(O)c3C(C)C)C2=O)C(=O)c2c(C=O)c(O)c(O)c(C(C)C)c2C1=O [Gossypolone, gossypolone, reference compound]	66	90	64	27	43	46	28	76	21	69	9	102	83	3	–	–	–
CC1=C(C2=C(C)C(=O)c3c(c(CSCCO)c(O)c(O)c3C(C)C)C2=O)C(=O)c2c(CSCCO)c(O)c(O)c(C(C)C)c2C1=O [Compound (14), 6,7,6′,7′-tetrahydroxy-8,8′-bis-(2-hydroxy-ethylsulphanylmethyl)-5,5′-diisopropyl-3,3′-dimethyl-[2,2′]binaphthalenyl-1,4,1′,4′-tetraone]	70	–	–	–	–	–	–	–	–	–	–	–	–	–	91	93	remaining activity at 10 µM (CDK2/cyclin A; [1]): 111%; remaining activity at 10 µM (CSK; [1]): 60%; remaining activity at 10 µM (DYRK1a; [1]): 16%; remaining activity at 10 µM (GSK3b; [1]): 85%; remaining activity at 10 µM (MAPK2/ERK2; [1]): 58%; remaining activity at 10 µM (MAPKAP-K2; [1]): 36%; remaining activity at 10 µM (MKK1; [1]): 90%; remaining activity at 10 µM (PHK; [1]): 27%; remaining activity at 10 µM (PKA; [1]): 59%; remaining activity at 10 µM (PRAK; [1]): 9%; remaining activity at 10 µM (SAPK2b/p38β2; [1]): 113%; remaining activity at 10 µM (SAPK3/p38g; [1]): 76%; remaining activity at 10 µM (SGK; [1]): 7%
CC1=C(C2=C(C)C(=O)c3c(c(O)c(O)c(O)c3C(C)C)C2=O)C(=O)c2c(O)c(O)c(O)c(C(C)C)c2C1=O [Compound (4), 6,7,8,6′,7′,8′-hexahydroxy-5,5′-diisopropyl-3,3′-dimethyl-[2.2′]binaphthalenyl-1,4,1′,4′-tetraone]	61	113	93	25	63	52	28	59	47	69	9	124	89	4	91	96	IC50 (KB tumour cell line): 1000 nM
Cc1cc2c(C(C)C)c(O)c(O)c(C=O)c2c(O)c1-c1c(C)cc2c(C(C)C)c(O)c(O)c(C=O)c2c1O [Gossypol, gossypol]	72	97	103	21	47	65	56	86	23	47	48	125	108	14	–	–	–
